From ChEMBL document CHEMBL1629541, “Synthesis and structure-activity relationships of aza- and diazabiphenyl analogues of the antitubercular drug (6S)-2-nitro-6-{[4-(trifluoromethoxy)benzyl]oxy}-6,7-dihydro-5H-imidazo[2,1-b][1,3]oxazine (PA-824)” (J Med Chem, 2010)
In brackets after ≈: the same amount, converted by molar mass.

Legend:
physchem = settings: water, pH 7
Description: Solubility of the compound in water at pH 7.0 by HPLC

[1] = system: Mycobacterium tuberculosis; assay: microbe, parasite or virus in culture; settings: H37Rv
[2] = system: Mycobacterium tuberculosis; assay: microbe, parasite or virus in culture; settings: H37Rv; remark: listed apart in the source
Description: Antitubercular activity against Mycobacterium tuberculosis H37Rv by LORA method

## O=[N+]([O-])c1cn2c(n1)OC[C@@H](OCc1ccnc(-c3ccc(F)cc3)c1)C2
physchem
  solubility: 31 µg/mL (≈ 83.7 µM)
[1]
  MIC: 0.17 µM (≈ 0.063 µg/mL)
[2]
  MIC: 1.2 µM (≈ 0.444 µg/mL)

## O=[N+]([O-])c1cn2c(n1)OC[C@@H](OCc1ccc(-c3ccc(OC(F)(F)F)cc3Cl)cn1)C2
[1]
  MIC: 0.14 µM (≈ 0.0659 µg/mL)
[2]
  MIC: 2.6 µM (≈ 1.22 µg/mL)

## O=[N+]([O-])c1cn2c(n1)OC[C@@H](OCc1ccc(-c3ccc(C(F)(F)F)cc3)cn1)C2
physchem
  solubility: 2.3 µg/mL (≈ 5.47 µM)
[1]
  MIC: 0.04 µM (≈ 0.0168 µg/mL)
[2]
  MIC: 3.4 µM (≈ 1.43 µg/mL)

## COc1ccc(-c2cc(CO[C@@H]3COc4nc([N+](=O)[O-])cn4C3)ccn2)cc1F
physchem
  solubility: 7.2 µg/mL (≈ 18 µM)
[1]
  MIC: 0.34 µM (≈ 0.136 µg/mL)
[2]
  MIC: 6.2 µM (≈ 2.48 µg/mL)

## O=[N+]([O-])c1cn2c(n1)OC[C@@H](OCc1ccccc1-c1ccc(F)nc1)C2
physchem
  solubility: 35 µg/mL (≈ 94.5 µM)
[1]
  MIC: > 8 µM
[2]
  MIC: 16 µM (≈ 5.93 µg/mL)

## COc1ccc(-c2ccc(CO[C@@H]3COc4nc([N+](=O)[O-])cn4C3)nc2)cc1F
physchem
  solubility: 10 µg/mL (≈ 25 µM)
[1]
  MIC: 0.17 µM (≈ 0.0681 µg/mL)
[2]
  MIC: 3.4 µM (≈ 1.36 µg/mL)

## N#Cc1ccc(-c2ccc(CO[C@@H]3COc4nc([N+](=O)[O-])cn4C3)cc2)nc1
physchem
  solubility: 1.7 µg/mL (≈ 4.5 µM)
[1]
  MIC: 0.08 µM (≈ 0.0302 µg/mL)
[2]
  MIC: 2.5 µM (≈ 0.943 µg/mL)

## N#Cc1ccc(-c2cc(CO[C@@H]3COc4nc([N+](=O)[O-])cn4C3)ccn2)cc1
physchem
  solubility: 8 µg/mL (≈ 21.2 µM)
[1]
  MIC: 0.38 µM (≈ 0.143 µg/mL)
[2]
  MIC: 13 µM (≈ 4.91 µg/mL)

## COc1ccc(-c2ccc(CO[C@@H]3COc4nc([N+](=O)[O-])cn4C3)cn2)cn1
physchem
  solubility: 51 µg/mL (≈ 133 µM)
[1]
  MIC: 0.24 µM (≈ 0.092 µg/mL)
[2]
  MIC: 7.3 µM (≈ 2.8 µg/mL)

## COc1ccc(-c2ccccc2CO[C@@H]2COc3nc([N+](=O)[O-])cn3C2)cn1
physchem
  solubility: 48 µg/mL (≈ 126 µM)
[1]
  MIC: 5.2 µM (≈ 1.99 µg/mL)
[2]
  MIC: 8.3 µM (≈ 3.17 µg/mL)

## O=[N+]([O-])c1cn2c(n1)OC[C@@H](OCc1ccc(-c3ccncc3F)cn1)C2
physchem
  solubility: 700 µg/mL (≈ 1890 µM)
[1]
  MIC: 3.2 µM (≈ 1.19 µg/mL)
[2]
  MIC: 20 µM (≈ 7.43 µg/mL)

## O=[N+]([O-])c1cn2c(n1)OC[C@@H](OCc1cncc(-c3ccc(OC(F)(F)F)cc3)c1)C2
physchem
  solubility: 9.5 µg/mL (≈ 21.8 µM)
[1]
  MIC: 0.17 µM (≈ 0.0742 µg/mL)
[2]
  MIC: 2.4 µM (≈ 1.05 µg/mL)

## COc1ccc(-c2ccnc(CO[C@@H]3COc4nc([N+](=O)[O-])cn4C3)c2)cc1F
physchem
  solubility: 25 µg/mL (≈ 62.4 µM)
[1]
  MIC: 2.3 µM (≈ 0.921 µg/mL)
[2]
  MIC: 16 µM (≈ 6.41 µg/mL)

## O=[N+]([O-])c1cn2c(n1)OC[C@@H](OCc1ccc(-c3ccc(C(F)(F)F)cc3)nc1)C2
physchem
  solubility: 1.2 µg/mL (≈ 2.85 µM)
[1]
  MIC: 0.053 µM (≈ 0.0223 µg/mL)
[2]
  MIC: 0.53 µM (≈ 0.223 µg/mL)

## O=[N+]([O-])c1cn2c(n1)OC[C@@H](OCc1cccc(-c3ccc(F)cc3)n1)C2
[1]
  MIC: 0.3 µM (≈ 0.111 µg/mL)
[2]
  MIC: 2.7 µM (≈ 1 µg/mL)

## O=[N+]([O-])c1cn2c(n1)OC[C@@H](OCc1ncc(-c3ccc(C(F)(F)F)nc3)cn1)C2
physchem
  solubility: 85 µg/mL (≈ 201 µM)
[1]
  MIC: 0.28 µM (≈ 0.118 µg/mL)
[2]
  MIC: 14 µM (≈ 5.91 µg/mL)

## COc1ccc(-c2cccc(CO[C@@H]3COc4nc([N+](=O)[O-])cn4C3)n2)cc1F
physchem
  solubility: 10 µg/mL (≈ 25 µM)
[1]
  MIC: 0.3 µM (≈ 0.12 µg/mL)
[2]
  MIC: 4.3 µM (≈ 1.72 µg/mL)

## O=[N+]([O-])c1cn2c(n1)OC[C@@H](OCc1cncc(-c3ccc(C(F)(F)F)cc3)c1)C2
physchem
  solubility: 2.8 µg/mL (≈ 6.66 µM)
[1]
  MIC: 0.15 µM (≈ 0.0631 µg/mL)
[2]
  MIC: 3.5 µM (≈ 1.47 µg/mL)

## O=[N+]([O-])c1cn2c(n1)OC[C@@H](OCc1ccccc1-c1ccc(OCc3ccccc3)nc1)C2
physchem
  solubility: 1.2 µg/mL (≈ 2.62 µM)
[1]
  MIC: 2.7 µM (≈ 1.24 µg/mL)
[2]
  MIC: 10 µM (≈ 4.58 µg/mL)

## N#Cc1ccc(-c2ccnc(CO[C@@H]3COc4nc([N+](=O)[O-])cn4C3)c2)cc1
physchem
  solubility: 19 µg/mL (≈ 50.3 µM)
[1]
  MIC: 2.1 µM (≈ 0.792 µg/mL)
[2]
  MIC: > 32 µM

## O=[N+]([O-])c1cn2c(n1)OC[C@@H](OCc1cccc(-c3ccccn3)c1)C2
[1]
  MIC: 1.4 µM (≈ 0.493 µg/mL)
[2]
  MIC: 11 µM (≈ 3.88 µg/mL)

## O=[N+]([O-])c1cn2c(n1)OC[C@@H](OCc1cccc(-c3ccc(C(F)(F)F)nc3)c1)C2
physchem
  solubility: 1.1 µg/mL (≈ 2.62 µM)
[1]
  MIC: 0.47 µM (≈ 0.198 µg/mL)
[2]
  MIC: 8.4 µM (≈ 3.53 µg/mL)

## N#Cc1ccc(-c2ccc(CO[C@@H]3COc4nc([N+](=O)[O-])cn4C3)cn2)cc1
physchem
  solubility: 2.9 µg/mL (≈ 7.68 µM)
[1]
  MIC: 0.18 µM (≈ 0.0679 µg/mL)
[2]
  MIC: 6 µM (≈ 2.26 µg/mL)

## COc1ccc(-c2cncc(CO[C@@H]3COc4nc([N+](=O)[O-])cn4C3)c2)cn1
physchem
  solubility: 31 µg/mL (≈ 80.9 µM)
[1]
  MIC: 2.8 µM (≈ 1.07 µg/mL)
[2]
  MIC: 22 µM (≈ 8.43 µg/mL)

## O=[N+]([O-])c1cn2c(n1)OC[C@@H](OCc1cnc(-c3ccc(F)cc3)nc1)C2
[1]
  MIC: 0.11 µM (≈ 0.0408 µg/mL)
[2]
  MIC: 5.4 µM (≈ 2.01 µg/mL)

## COc1ccc(-c2ccc(CO[C@@H]3COc4nc([N+](=O)[O-])cn4C3)nn2)cc1F
physchem
  solubility: 6.8 µg/mL (≈ 16.9 µM)
[1]
  MIC: 0.25 µM (≈ 0.1 µg/mL)
[2]
  MIC: 6.6 µM (≈ 2.65 µg/mL)

## O=[N+]([O-])c1cn2c(n1)OC[C@@H](OCc1cnc(-c3ccc(C(F)(F)F)cc3)nc1)C2
[1]
  MIC: 0.025 µM (≈ 0.0105 µg/mL)
[2]
  MIC: 9.4 µM (≈ 3.96 µg/mL)

## O=[N+]([O-])c1cn2c(n1)OC[C@@H](OCc1ccc(-c3ccc(OC(F)F)cc3)nc1)C2
physchem
  solubility: 1.6 µg/mL (≈ 3.82 µM)
[1]
  MIC: 0.02 µM (≈ 0.00837 µg/mL)
[2]
  MIC: 3.4 µM (≈ 1.42 µg/mL)

## O=[N+]([O-])c1cn2c(n1)OC[C@@H](OCc1ncc(-c3ccc(C(F)(F)F)cc3)cn1)C2
physchem
  solubility: 2.7 µg/mL (≈ 6.41 µM)
[1]
  MIC: 0.06 µM (≈ 0.0253 µg/mL)
[2]
  MIC: 3.5 µM (≈ 1.47 µg/mL)

## O=[N+]([O-])c1cn2c(n1)OC[C@@H](OCc1ccc(-c3ccc(F)nc3)nc1)C2
physchem
  solubility: 51 µg/mL (≈ 137 µM)
[1]
  MIC: 0.37 µM (≈ 0.137 µg/mL)
[2]
  MIC: 13 µM (≈ 4.83 µg/mL)

## N#Cc1ccc(-c2ccc(CO[C@@H]3COc4nc([N+](=O)[O-])cn4C3)nn2)cc1
physchem
  solubility: 22 µg/mL (≈ 58.1 µM)
[1]
  MIC: 0.36 µM (≈ 0.136 µg/mL)
[2]
  MIC: 13 µM (≈ 4.92 µg/mL)
